Reference: US20060069132A1, “Azolecarboxamide herbicides” (priority 2004, published 2006)

What was measured:
[1] = tested on: barnyardgrass; test: Test B pre-/postemergence herbicide test; assay type: in vivo, Echinochloa crus-galli; settings: for Barnyardgrass plant response rating: postemergence; for Plant response rating (0 to 100 scale), Barnyardgrass: 0 is no effect
How it was run: (§1)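 Formulation: non-phytotoxic solvent mix with surfactant. Timing: preemergence on seed and postemergence on 2–18 cm plants, applied concurrently. Readout after 13–15 d greenhouse: visual 0–100 control rating against controls.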

[2] = tested on: Surinam grass; test: Test B pre-/postemergence herbicide test; assay type: in vivo, Urochloa decumbens; settings: for Surinam Grass plant response rating: postemergence; for Plant response rating (0 to 100 scale), Surinam Grass: 0 is no effect
How it was run: (§2)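 Evaluation is visual, comparing treated with control plants on a scale where 0 means no effect and 100 means full control. Treatments were preemergence, or postemergence on seedlings 2–18 cm tall, and held 13–15 days in the greenhouse.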

[3] = tested on: cocklebur; test: Test B pre-/postemergence herbicide test; assay type: in vivo, Xanthium strumarium; settings: for Cocklebur plant response rating: postemergence; for Plant response rating (0 to 100 scale), Cocklebur: 0 is no effect
How it was run: as §1

[4] = tested on: corn; test: Test B pre-/postemergence herbicide test; assay type: in vivo, Zea mays; settings: for Corn plant response rating: postemergence
How it was run: as §2

[5] = tested on: large crabgrass; test: Test B pre-/postemergence herbicide test; assay type: in vivo, Digitaria sanguinalis; settings: for Crabgrass, Large plant response rating: postemergence; for Plant response rating (0 to 100 scale), Crabgrass, Large: 0 is no effect
How it was run: as §2

[6] = tested on: giant foxtail; test: Test B pre-/postemergence herbicide test; assay type: in vivo, Setaria faberi; settings: for Foxtail, Giant plant response rating: postemergence; for Plant response rating (0 to 100 scale), Foxtail, Giant: 0 is no effect
How it was run: as §2

[7] = tested on: pigweed; test: Test B pre-/postemergence herbicide test; assay type: in vivo, Amaranthus retroflexus; settings: for Pigweed plant response rating: postemergence; for Plant response rating (0 to 100 scale), Pigweed: 0 is no effect
How it was run: as §2

[8] = tested on: velvetleaf; test: Test B pre-/postemergence herbicide test; assay type: in vivo, Abutilon theophrasti; settings: for Velvetleaf plant response rating: postemergence; for Plant response rating (0 to 100 scale), Velvetleaf: 0 is no effect
How it was run: as §2

[9] = tested on: blackgrass; test: Test B postemergence herbicide test; assay type: in vivo, Alopecurus myosuroides; settings: postemergence
How it was run: (§3)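 Scale 0–100: zero equals no visible effect, 100 complete control, judged by eye relative to controls. Timing: 13 to 15 days in greenhouse post-treatment. Growth stage at spraying: two leaves (paddy) or one to four leaves, 2–18 cm (postemergence).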

[10] = tested on: wheat; test: Test B postemergence herbicide test; assay type: in vivo, Triticum aestivum; parameters: key to Wheat plant response rating: 0 = no effect, 100 = complete control; settings: postemergence
How it was run: as §3

[11] = tested on: wild oat; test: Test B postemergence herbicide test; assay type: in vivo, Avena fatua; settings: postemergence
How it was run: as §3

[12] = tested on: rice; test: Test B flooded paddy test; assay type: in vivo, Oryza sativa; settings: 1000 g ai/ha, scale 0 to 100 (0 no effect, 100 complete control)
How it was run: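 Each value is a visual 0–100 response rating taken against controls 13 to 15 days after treatment in the greenhouse. Plants received formulated chemical postemergence at the 1- to 4-leaf stage or, in flooded paddy, at the 2-leaf stage.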

[13] = tested on: small flower umbrella sedge; test: Test B flooded paddy test; assay type: in vivo, Cyperus difformis; settings: 1000 g ai/ha, scale 0 to 100 (0 no effect, 100 complete control)
How it was run: as §3

[14] = tested on: ducksalad; test: Test B flooded paddy test; assay type: in vivo, Heteranthera limosa; settings: 1000 g ai/ha, scale 0 to 100 (0 no effect, 100 complete control)
How it was run: as §3

[15] = tested on: barnyardgrass; test: Test B flooded paddy test; assay type: in vivo, Echinochloa crus-galli; settings: 1000 g ai/ha, scale 0 to 100 (0 no effect, 100 complete control)
How it was run: as §3

[16] = 125 g ai/ha, 0 = no effect, 100 = complete control, preemergence
[17] = 125 g ai/ha, visual rating, scale 0 (no effect) to 100 (complete control)
[18] = 500 g ai/ha, visual rating, 0 = no effect, 100 = complete control, preemergence
[19] = 500 g ai/ha, scale 0 to 100, 0 is no effect, 100 is complete control
[20] = 125 g ai/ha, 100 is complete control, preemergence

## CCN1N=C(C(C)(C)C)CC1C(=O)Nc1cc(C(=O)N2CCCC2)ccc1F (racemic) [Compound 309]
[1]; [16]
  Barnyardgrass plant response rating (0 to 100 scale): 80
[1]; [17]
  Barnyardgrass plant response rating: 20
[1]; [18]
  Plant response rating, Barnyardgrass: 100
[1]; [19]
  Barnyardgrass plant response rating: 40
[2]; [16]
  Surinam Grass plant response rating (0 to 100 scale): 60
[2]; [17]
  Surinam Grass plant response rating: 10
[2]; [18]
  Plant response rating, Surinam Grass: 100
[2]; [19]
  Surinam Grass plant response rating: 40
[3]; [16]
  Cocklebur plant response rating (0 to 100 scale): 30
[3]; [17]
  Cocklebur plant response rating: 40
[3]; [18]
  Plant response rating, Cocklebur: 80
[3]; [19]
  Cocklebur plant response rating: 70
[4]; [16]
  Corn plant response rating (0 to 100 scale): 60
[4]; [17]
  Corn plant response rating: 20
[4]; [18]
  Plant response rating, Corn: 90
[4]; [19]
  Corn plant response rating: 60
[5]; [16]
  Crabgrass, Large plant response rating (0 to 100 scale): 60
[5]; [17]
  Crabgrass, Large plant response rating: 0
[5]; [18]
  Plant response rating, Crabgrass, Large: 100
[5]; [19]
  Crabgrass, Large plant response rating: 40
[6]; [16]
  Foxtail, Giant plant response rating (0 to 100 scale): 80
[6]; [17]
  Foxtail, Giant plant response rating: 20
[6]; [18]
  Plant response rating, Foxtail, Giant: 100
[6]; [19]
  Foxtail, Giant plant response rating: 40
[7]; [16]
  Pigweed plant response rating (0 to 100 scale): 70
[7]; [17]
  Pigweed plant response rating: 50
[7]; [18]
  Plant response rating, Pigweed: 100
[7]; [19]
  Pigweed plant response rating: 70
[8]; [17]
  Velvetleaf plant response rating: 20
[8]; [18]
  Plant response rating, Velvetleaf: 100
[8]; [19]
  Velvetleaf plant response rating: 40
[9]; [17]
  Blackgrass plant response rating: 10
[9]; [19]
  Blackgrass plant response rating: 30
[10]; [17]
  Wheat plant response rating: 20
[10]; [19]
  Wheat plant response rating: 30
[11]; [17]
  Oat, Wild plant response rating: 20
[11]; [19]
  Oat, Wild plant response rating: 40
[12]
  Rice plant response rating: 80
[13]
  Sedge, Umbrella plant response rating: 80
[14]
  Ducksalad plant response rating: 90
[15]
  Barnyardgrass plant response rating: 90

## CCC1=NN(C(C)(C)C)CC1C(=O)Nc1cc(C(=O)N2CC=CC2)ccc1F (racemic) [Compound 340]
[1]; [20]
  Plant response rating (0 to 100 scale), Barnyardgrass: 80
[1]; [17]
  Barnyardgrass plant response rating: 10
[1]; [18]
  Plant response rating, Barnyardgrass: 100
[1]; [19]
  Barnyardgrass plant response rating: 20
[2]; [20]
  Plant response rating (0 to 100 scale), Surinam Grass: 80
[2]; [17]
  Surinam Grass plant response rating: 10
[2]; [18]
  Plant response rating, Surinam Grass: 100
[2]; [19]
  Surinam Grass plant response rating: 20
[3]; [20]
  Plant response rating (0 to 100 scale), Cocklebur: 20
[3]; [17]
  Cocklebur plant response rating: 0
[3]; [18]
  Plant response rating, Cocklebur: 50
[3]; [19]
  Cocklebur plant response rating: 20
[4]; [17]
  Corn plant response rating: 0
[4]; [19]
  Corn plant response rating: 20
[5]; [20]
  Plant response rating (0 to 100 scale), Crabgrass, Large: 80
[5]; [17]
  Crabgrass, Large plant response rating: 10
[5]; [18]
  Plant response rating, Crabgrass, Large: 100
[5]; [19]
  Crabgrass, Large plant response rating: 20
[6]; [20]
  Plant response rating (0 to 100 scale), Foxtail, Giant: 60
[6]; [17]
  Foxtail, Giant plant response rating: 20
[6]; [18]
  Plant response rating, Foxtail, Giant: 100
[6]; [19]
  Foxtail, Giant plant response rating: 40
[7]; [20]
  Plant response rating (0 to 100 scale), Pigweed: 100
[7]; [17]
  Pigweed plant response rating: 50
[7]; [18]
  Plant response rating, Pigweed: 100
[7]; [19]
  Pigweed plant response rating: 80
[8]; [20]
  Plant response rating (0 to 100 scale), Velvetleaf: 70
[8]; [17]
  Velvetleaf plant response rating: 20
[8]; [19]
  Velvetleaf plant response rating: 40
[9]; [17]
  Blackgrass plant response rating: 20
[9]; [19]
  Blackgrass plant response rating: 30
[10]; [17]
  Wheat plant response rating: 0
[10]; [19]
  Wheat plant response rating: 10
[11]; [17]
  Oat, Wild plant response rating: 20
[11]; [19]
  Oat, Wild plant response rating: 30
[12]
  Rice plant response rating: 80
[13]
  Sedge, Umbrella plant response rating: 80
[14]
  Ducksalad plant response rating: 90
[15]
  Barnyardgrass plant response rating: 90

## CCC1=NN(C(C)(C)C)CC1C(=O)Nc1cc(C(=O)N2CCCC2)ccc1F (racemic) [Compound 341]
[1]; [20]
  Plant response rating (0 to 100 scale), Barnyardgrass: 80
[1]; [17]
  Barnyardgrass plant response rating: 10
[1]; [18]
  Plant response rating, Barnyardgrass: 100
[1]; [19]
  Barnyardgrass plant response rating: 20
[2]; [20]
  Plant response rating (0 to 100 scale), Surinam Grass: 100
[2]; [17]
  Surinam Grass plant response rating: 10
[2]; [18]
  Plant response rating, Surinam Grass: 100
[2]; [19]
  Surinam Grass plant response rating: 20
[3]; [20]
  Plant response rating (0 to 100 scale), Cocklebur: 40
[3]; [17]
  Cocklebur plant response rating: 10
[3]; [18]
  Plant response rating, Cocklebur: 100
[3]; [19]
  Cocklebur plant response rating: 20
[4]; [17]
  Corn plant response rating: 0
[4]; [19]
  Corn plant response rating: 10
[5]; [20]
  Plant response rating (0 to 100 scale), Crabgrass, Large: 90
[5]; [17]
  Crabgrass, Large plant response rating: 10
[5]; [18]
  Plant response rating, Crabgrass, Large: 100
[5]; [19]
  Crabgrass, Large plant response rating: 20
[6]; [20]
  Plant response rating (0 to 100 scale), Foxtail, Giant: 50
[6]; [17]
  Foxtail, Giant plant response rating: 30
[6]; [18]
  Plant response rating, Foxtail, Giant: 90
[6]; [19]
  Foxtail, Giant plant response rating: 30
[7]; [20]
  Plant response rating (0 to 100 scale), Pigweed: 90
[7]; [17]
  Pigweed plant response rating: 30
[7]; [18]
  Plant response rating, Pigweed: 100
[7]; [19]
  Pigweed plant response rating: 60
[8]; [20]
  Plant response rating (0 to 100 scale), Velvetleaf: 60
[8]; [17]
  Velvetleaf plant response rating: 20
[8]; [19]
  Velvetleaf plant response rating: 30
[9]; [17]
  Blackgrass plant response rating: 10
[9]; [19]
  Blackgrass plant response rating: 20
[10]; [17]
  Wheat plant response rating: 10
[10]; [19]
  Wheat plant response rating: 20
[11]; [17]
  Oat, Wild plant response rating: 0
[11]; [19]
  Oat, Wild plant response rating: 30
[12]
  Rice plant response rating: 70
[13]
  Sedge, Umbrella plant response rating: 80
[14]
  Ducksalad plant response rating: 90
[15]
  Barnyardgrass plant response rating: 90

## CCC1=NN(C(C)(C)C)CC1C(=O)Nc1cc(C(=O)N(C)CC)ccc1F (racemic) [Compound 342]
[1]; [20]
  Plant response rating (0 to 100 scale), Barnyardgrass: 70
[1]; [17]
  Barnyardgrass plant response rating: 10
[1]; [18]
  Plant response rating, Barnyardgrass: 100
[1]; [19]
  Barnyardgrass plant response rating: 20
[2]; [20]
  Plant response rating (0 to 100 scale), Surinam Grass: 50
[2]; [17]
  Surinam Grass plant response rating: 10
[2]; [18]
  Plant response rating, Surinam Grass: 100
[2]; [19]
  Surinam Grass plant response rating: 20
[3]; [20]
  Plant response rating (0 to 100 scale), Cocklebur: 40
[3]; [17]
  Cocklebur plant response rating: 10
[3]; [18]
  Plant response rating, Cocklebur: 90
[3]; [19]
  Cocklebur plant response rating: 20
[4]; [17]
  Corn plant response rating: 10
[4]; [19]
  Corn plant response rating: 30
[5]; [20]
  Plant response rating (0 to 100 scale), Crabgrass, Large: 40
[5]; [17]
  Crabgrass, Large plant response rating: 10
[5]; [18]
  Plant response rating, Crabgrass, Large: 100
[5]; [19]
  Crabgrass, Large plant response rating: 20
[6]; [20]
  Plant response rating (0 to 100 scale), Foxtail, Giant: 40
[6]; [17]
  Foxtail, Giant plant response rating: 20
[6]; [18]
  Plant response rating, Foxtail, Giant: 90
[6]; [19]
  Foxtail, Giant plant response rating: 50
[7]; [20]
  Plant response rating (0 to 100 scale), Pigweed: 80
[7]; [17]
  Pigweed plant response rating: 40
[7]; [18]
  Plant response rating, Pigweed: 100
[7]; [19]
  Pigweed plant response rating: 80
[8]; [20]
  Plant response rating (0 to 100 scale), Velvetleaf: 70
[8]; [17]
  Velvetleaf plant response rating: 20
[8]; [19]
  Velvetleaf plant response rating: 50
[9]; [17]
  Blackgrass plant response rating: 20
[9]; [19]
  Blackgrass plant response rating: 30
[10]; [17]
  Wheat plant response rating: 0
[10]; [19]
  Wheat plant response rating: 10
[11]; [17]
  Oat, Wild plant response rating: 20
[11]; [19]
  Oat, Wild plant response rating: 30
[12]
  Rice plant response rating: 70
[13]
  Sedge, Umbrella plant response rating: 70
[14]
  Ducksalad plant response rating: 80
[15]
  Barnyardgrass plant response rating: 90
